Measured values published in ChEMBL document CHEMBL1949542, “Reductive activation of 5-fluorodeoxyuridine prodrug possessing azide methyl group by hypoxic X-irradiation” (Bioorg Med Chem Lett, 2012).
Activity calls are given as the source filed them. The rule behind the calls is not given here.

Assays:
Type in all cases: functional, cell-based
A549 [1] = assay: Cytotoxicity against human A549 cells assessed as cell viability after 72 hrs by WST-8 assay; conditions: A549, 72 h
A549 [2] = assay: Cytotoxicity against human A549 cells assessed as cell viability under hypoxic condition at 100 nM after 72 hrs by WST-8 assay
A549 [3] = assay: Cytotoxicity against human A549 cells assessed as cell viability at 200 nM compound X-irradiated under aerobic conditions measured after 72 hrs by WST-8 assay
A549 [4] = assay: Cytocidal activity against human A549 cells assessed as cell viability at 200 nM compound X-irradiated under hypoxic conditions measured after 72 hrs by WST-8 assay

| Compound | IC50 (A549 [1]) | Activity (A549 [2]) | Activity (A549 [3]) | Activity (A549 [4]) |
| --- | --- | --- | --- | --- |
| O=c1[nH]c(=O)n([C@H]2C[C@H](O)[C@@H](CO)O2)cc1F [FLOXURIDINE] | 47 nM | – | – | – |
| [N-]=[N+]=NCn1c(=O)c(F)cn([C@H]2C[C@H](O)[C@@H](CO)O2)c1=O | 1470 nM | inactive | inactive | inactive |
